The nature of data set [1]: In vitro stability of the radio-labeled chelate in human plasma. It counts as in vitro ADME. How it is done: The stability of the serum and of the in vitro chelate were also studied by TLC and by HPLC.
For the stability of the serum, 200 μL of radiomarked Me-DODPA^2− solution (activity: 1 MBq, radiochemical purity: 95%) were mixed with 800 μL of human plasma. The plasma stability values were controlled in comparison with free ^213Bi, after 1 and 2 hours of incubation (about 1 and 2 half-lives) at ambient temperature by direct gel permeation chromatography on plasma in a PD-10 column and by TLC analysis of this supernatant after precipitation of the plasma proteins with ammonium sulfate. The TLC analysis was performed under the same conditions as earlier. After precipitation, the activity in the precipitate was measured (78.8%) as also the activity in the supernatant ([…]).

Data set [2] is described as follows: 1H NMR competition with DOTA for complexation of bismuth (III). The data set is classed as physicochemical. How it is done:
As regards the chelate of Me-DODPA and bismuth (III) or DODPA and bismuth (III), the thermodynamic stability constants were evaluated by NMR ^1H (in a concentration of 10^−2 M) in studying the competitivity of the complexation of bismuth (III) with Me-DODPA or DODPA and DOTA. Indeed, such a constant cannot be measured directly by potentiometery for the bismuth chelates
A mole equivalent of […] was added to an equimolar solution of DODPA and DOTA at pH=1. The pH was then adjusted to 3 and an NMR spectrum was recorded. After five days at 25° C., it was observed that about 40% of the DODPA had been complexated with bismuth (III). […] Chem., 2003, 42, 2342-2349, is about 30.3.

Data set [3] can be described thus: Kinetics of complexation with bismuth (III) by UV/Vis spectroscopy. It counts as physicochemical. The settings on record: 1.65×10^-4 M each, stirring at ambient temperature. How it is done:
(§1) The kinetics of complexation of Me-DODPA chelates with bismuth (III) and lead (II) were studied by UV/Vis spectroscopy.
An aqueous solution of Bi(NO3)3.5H2O (1.65×10^−4 M) was added to an aqueous solution of Me-DODPA (1.65×10^−4M). The UV/Vis spectra were recorded at different reaction times.

Data set [4] is described as follows: Kinetics of complexation with lead (II) by UV/Vis spectroscopy. The following applies: equimolar 0.74×10^-4 M, pH=7. It counts as physicochemical.
Source text: as §1
Referring to FIG. 4, a total complexation of Me-DODPA with lead (II) was observed ten minutes after the equimolar mixing (0.74×10^−4 M) of an aqueous solution of PbCl2 and an aqueous solution of Me-DODPA at pH=7.

Data set [5] in a line: Thermodynamic stability constant pK of lead (II) chelates by potentiometry. It counts as physicochemical. The settings on record: 25° C., 0.10 M in KNO3. How it is done:
(§2) For the DODPA or Me-DODPA chelates with lead (II), the thermodynamic stability constant pK was determined directly by potentiometery at 25° C., for a concentration of 0.10 M in KNO3. […] The pM values corresponding to the non-chelated lead concentrations were therefore computed for the DODPA or Me-DODPA chelates with lead (II) and compared with the value known for the DOTA chelate with lead (II). This value pM is defined by the negative logarithm of the free metal concentration at a pH of 7.4 and with a concentration of Pb(II) of 10 μM and a ligand concentration that is ten times greater. A pM value of 12.3 was measured for the chelate of DODPA and lead (II) and 14.9 for the chelate of Me-DODPA and lead (II) while the known pM value for the complex of DOTA and lead (II) is 18.4

Data set [6] is described as follows: pM value (free lead concentration) of lead (II) chelates. It counts as physicochemical. The following applies: pH 7.4, Pb(II) 10 μM, ligand concentration ten times greater. How it is done:
as §2

A short description of data set [7]: Kinetics of dissociation of complexes in DCl 0.1 M by NMR. It counts as physicochemical. The procedure: The kinetics of dissociation of these complexes were also studied by NMR. In this context, the [Bi(Me-DODPA)](NO3) and [Pb(Me-DODPA)] complexes were dissolved in DCl 0.1 M.
Setting [8] is: human plasma, ammonium sulfate precipitation.

As to `CN1CCN(Cc2cccc(C(=O)[O-])n2)CCN(C)CCN(Cc2cccc(C(=O)[O-])n2)CC1.CN1CCN(Cc2cccc(C(=O)[O-])n2)CCN(C)CCN(Cc2cccc(C(=O)[O-])n2)CC1.CN1CCN(Cc2cccc(C(=O)[O-])n2)CCN(C)CCN(Cc2cccc(C(=O)[O-])n2)CC1.[213Bi+3].[213Bi+3]` [(^213Bi(Me-DODPA))^+], the “stability in human plasma” value in data set [1] (1 and 2 hours of incubation at ambient temperature) is reported as “stable in human plasma for at least two half-lives”. In data set [1] (human plasma supernatant after protein precipitation), the “radioactivity of the supernatant detected at Fr=0.5 (intact chelate), TLC” value is “more than 90%”. For the same molecule, in data set [1] (setting [8]), the “activity in the precipitate after precipitation of plasma proteins” value came to 78.8% and the “activity in the supernatant after precipitation of plasma proteins” value was 3.8%.

Consider `O=C(O)c1cccc(CN2CCNCCN(Cc3cccc(C(=O)O)n3)CCNCC2)n1` [DODPA], for which the “ligand complexated with bismuth (III) in competition with DOTA” value in data set [2] (equimolar ligand and DOTA, one mole equivalent Bi, pH 3, five days at 25° C., 10^-2 M) is recorded as “about 40%”.

Take `CN1CCN(Cc2cccc(C(=O)O)n2)CCN(C)CCN(Cc2cccc(C(=O)O)n2)CC1` [Me-DODPA]: the “time to total complexation with bismuth (III)” value in data set [3] was determined as 30 min. For the same molecule, in data set [4], the “time to total complexation with lead (II)” value was “ten”. Besides, the “bismuth (III) complexated in equimolar mixture of ligand and DOTA” value in data set [2] (equimolar mixture of Me-DODPA and DOTA) is listed as “the totality of the bismuth (III) was complexated by the Me-DODPA”.

Turning to `O=C([O-])c1cccc(CN2CCNCCN(Cc3cccc(C(=O)[O-])n3)CCNCC2)n1.[Pb+2]` [Pb(DODPA)], the “thermodynamic stability constant pK” value in data set [5] is recorded as 17.09. Further, in data set [6], the “pM value (negative logarithm of the free metal concentration)” value came out at 12.3.

Regarding `CN1CCN(Cc2cccc(C(=O)[O-])n2)CCN(C)CCN(Cc2cccc(C(=O)[O-])n2)CC1.[Pb+2]` [[Pb(Me-DODPA)]], the “thermodynamic stability constant pK” value in data set [5] came to 18.74. Also, the “dissociation of the complex” value in data set [7] was “total dissociation of the complex [Pb(Me-DODPA)] was observed at the end of seven days”. Besides, the “pM value (negative logarithm of the free metal concentration)” value in data set [6] was found to be 14.9.

The record behind these values is patent US9884881B2, “Chelates of lead (II) and bismuth (III) based on trans-di-N-picolinate tetraazacycloalkanes” (CNRS—CENTRE NATIONAL DE LA RECHERCHE SCIENTIFIQUE, priority 2013, dated 2018).
